Consider four compounds from article PMC7563863, “Quantification of Boron Compound Concentration for BNCT Using Positron Emission Tomography” (Cells, 2020).

Data set [1] is described as follows: Calculation of boron concentration in thyroid from PET activity concentration and production data. It counts as in vivo, rat. From the text:
As injection solution of the [^18F]NaBF4 tracer contains the majority of unlabeled NaBF4; from the NaBF4 molar concentration in the synthesis solution, we could know the labeled to unlabeled tracer compound concentration ratio at the beginning of the PET study. […] The boron concentration is known only with the spatial resolution of the PET image, which in the Mosaic scanner case is about 2.3 mm. The microscopic details of the boron concentration were inferred from NIS immunofluorescence, assuming that the BF4^− concentration is only significant in NIS-containing cells.
Briefly, at the radiotracer production stage, the mass of NaBF4, Milli-Q water, and activity and volume of the [^18F]F^- Milli-Q water solution arriving from the cyclotron are known. Correcting for ^18F decay during the production and time needed for injection, with the known volume and activity of the produced and injected [^18F]NaBF4 tracer, we can calculate the amount of NaBF4 left from the production stage in the tissue from the activity concentration expressed initially as maximum local value of standard uptake value (SUVmax), then recalculated to kBq/mL and, then, to the molar concentration of ^18F at the beginning of the PET study.
To calculate the boron concentration, we start from calculating the ^18F molar concentration in the product to be injected. At the end of synthesis (EOS, decay-corrected to PET study start), we received 4.3 GBq of [^18F]NaBF4 in 2 mL of saline. As the activity concentration A is A=N/τ , where N is the number of ^18F atoms and τ=t1/2/ln(2) , t1/2 of ^18F being 109.7 min expressed in seconds, and diluted in 25.9 mL of Milli-Q water, we obtained 33.9 nM of [^18F]NaBF4 at the EOS and 351 µM of unlabeled NaBF4. We can calculate the molar concentration in the hyperplasia maximum from the maximum of the curve in Figure 3: 2.3 MBq/mL. […] Dividing the calculated concentration of [^18F]NaBF4 36.8 pM by 9.7 × 10^−5, we receive, therefore, a 381 nM boron concentration, which is […] of the fraction of required 2 mM ^10B concentration for BNCT treatment.

A short description of data set [2]: Estimated concentration in the blood after injection. It counts as in vivo. As to conditions: rat. As to the method: The initial concentration of NaBF4 in the blood after injection of 110 mg/kg in the rat is about 16 mM, but as it can be seen from Figure 3, it is expected to drop fast to about 25% at 90 min—that is, to 4 mM. BPA is injected at doses of 500 mg/kg, which in rats, results in an initial concentration in the blood of 37 mM. The transporter of BPA is L-type amino acid transporter (LAT1), which for the most similar compound, phenylalanine has an IC50 of about 60 µM [20]. This is a […] of magnitude higher concentration in the blood for phenylalanine, and BPA still allows reaching therapeutic boron concentrations in the tumor.

The next data set concerns NIS. Details: method as in PMID 21085047. Particulars: cited from earlier work.
In data set [3] the target is T1, sodium-iodine symporter (NIS) in thyroids (Rattus norvegicus, UniProt Q63008).
T1 construct: It was injected into the tail veins of rats; from tissue; host or cells: thyroid (hyperplastic, perchlorate-treated) of living Wistar rats
T1 sequence (Q63008 1-618): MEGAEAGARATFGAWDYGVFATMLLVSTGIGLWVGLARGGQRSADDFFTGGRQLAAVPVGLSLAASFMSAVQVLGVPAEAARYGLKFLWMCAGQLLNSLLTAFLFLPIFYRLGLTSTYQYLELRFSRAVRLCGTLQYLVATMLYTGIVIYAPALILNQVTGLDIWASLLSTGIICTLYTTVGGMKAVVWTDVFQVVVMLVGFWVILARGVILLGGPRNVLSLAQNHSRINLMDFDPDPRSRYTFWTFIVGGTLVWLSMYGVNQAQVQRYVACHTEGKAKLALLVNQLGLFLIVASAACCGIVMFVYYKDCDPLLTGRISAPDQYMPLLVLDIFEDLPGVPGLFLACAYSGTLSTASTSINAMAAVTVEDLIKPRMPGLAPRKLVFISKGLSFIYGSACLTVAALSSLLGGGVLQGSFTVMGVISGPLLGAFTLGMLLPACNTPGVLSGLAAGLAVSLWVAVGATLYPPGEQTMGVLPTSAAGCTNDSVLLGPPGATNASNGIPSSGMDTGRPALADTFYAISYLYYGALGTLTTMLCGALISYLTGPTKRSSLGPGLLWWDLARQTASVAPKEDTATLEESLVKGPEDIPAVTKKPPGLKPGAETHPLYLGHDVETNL
On the set-up: method as in PMID 20577737. Particulars: cited from earlier work.

Data set [4] addresses T1, sodium-iodine symporter (NIS) in thyroids. The experiment in a line: Dynamic [^18F]NaBF4 PET/CT of the hyperplastic thyroid, time-activity curve. Type of data set: in vivo. As to the method: Female Wistar rats, aged 16–17 weeks old and weighing 200–220 g at the study starting moment, were kept in pathogen-free cages at the animal facilities of the School of Medicine (University of Seville, Seville, Spain) under controlled laboratory conditions (temperature 20 ± 2 °C, humidity 40–50%, lighting regimen of 12 light/12 dark hours). Animals were fed a normal laboratory diet (Teklad diet, Envigo, Cambridgeshire, UK) and fresh tap water ad libitum. The study was approved by the Ethical Committee of the Faculty of Medicine, University of Seville. Animal handling was conducted following the Guide for the Care and Use of Laboratory Animals. Rats were divided into two equal groups: the control group and the treated group. Animals from the treated group received 1% potassium perchlorate (w/v) in the drinking water, ad libitum, for […]. All experiments were carried with the approval of the ethics committee of the University of Seville.
PET imaging was carried out in a Mosaic microPET scanner (Philips, Andover, MA, USA) followed by a CT scan in NanoCT (Bioscan/Mediso, Budapest, Hungary). Briefly, animals were anesthetized with isoflurane. A catheter was placed in the tail vein. A radiotracer (41 MBq) was injected with a maximum limit of 5 mL/kg in a bolus injection. […]

The target is the same in data set [5]. The experiment in a line: Two-tissue compartment kinetic modeling of the tracer in the thyroid VOI (PMOD PKIN). Type of data set: in vivo. As to conditions: two-tissue compartment model, hyperplastic thyroid. From the text: The kinetic modeling of the tracer in VOIs was done using two tissue compartment models shown in Equation (1). Cp is the activity concentration of the tracer in the plasma, C1 and C2 are concentrations in two compartments, k are the kinetic constants, and t is time. The kinetic modeling was done in the PMOD module PKIN using full blood as the input function, with linear interpolation between experimental points taken from the dynamic image of the left ventricle of the heart.
(1) dC2(t)/dt=k3C1(t)−k4C2(t)dC1(t)/dt=K1Cp(t)−(k2 + k3)C1(t) + k4C2(t)

Another data set relates to thyroid gland. The experiment in a line: [^18F]FDG PET/CT of the thyroid gland. Type of data set: in vivo, rat. As to the method:
PET imaging was carried out in a Mosaic microPET scanner (Philips, Andover, MA, USA) followed by a CT scan in NanoCT (Bioscan/Mediso, Budapest, Hungary). Briefly, animals were anesthetized with isoflurane. A catheter was placed in the tail vein. A radiotracer (41 MBq) was injected with a maximum limit of 5 mL/kg in a bolus injection. In dynamic studies, this was done already in the PET scanner on a heated animal bed (Équipement Vétérinaire MINERVE, Esternay, France). For static studies, animals were awakened and let up for 45-min radiotracer uptake. Then, the animal was anesthetized again and placed in the heated bed of the PET scanner. The dynamic scans were of 90 min centered in the thyroids; the static ones were three beds of 10 cm longitudinal lengths starting from the head towards the tail. Each bed position was scanned for 15 min. CT scans were acquired in 45 kVp with 177 µA at 500 ms exposition and 240 projections per rotation.
PET images were reconstructed using an iterative method with decay, scatter, and random corrections without attenuation correction. […] CT images were reconstructed using the filtered back-projection method with an exact cone-beam and with a Shepp Logan 98% filter, giving a 0.2 mm uniform pixel size. […]

Data set [6] deals with L-type amino acid transporter (LAT1). On the set-up: method as in PMID 30048132. As to conditions: cited from earlier work.

The structures appear in SMILES notation.

What is called IC50 is the point on the concentration scale where inhibition reaches its midpoint. On to `F[B-](F)(F)F.[Na+]` [NaBF4], for which the “fraction of the required 2 mM ^10B concentration reached” value in data set [1] (381 nM boron in hyperplastic thyroid) is listed as 19 × 10^−5. For the same compound, the “boron concentration in thyroid with hyperplasia” value in data set [1] (at peak, after 53 nmol (21 µg/kg) NaBF4 injected) is 381 nM. Moreover, the “concentration in the blood at 90 min” value in data set [2] (110 mg/kg, expected) was 4000 µM. The “concentration in the blood at 90 min as fraction of initial” value in data set [2] (expected from Figure 3 blood curve) is “about 25%”. In the data set with NIS, the half-maximal inhibitory concentration (IC50) is 1.6 µM.
Regarding `F[B-](F)(F)F.[Na+]` [[^18F]NaBF4], the “molar concentration of [^18F]NaBF4 in thyroid at peak” value in data set [1] (hyperplasia maximum, from 2.3 MBq/mL) was 36.8 pM. Further, the stability in vivo entry in data set [3] is recorded as “stable in vivo”. Further, in data set [4] (PET), the capture in bones entry is listed as “no capture in bones”. Moreover, the “peak activity concentration in thyroid” value in data set [4] (hyperplastic thyroid, about 17 min after injection) was found to be 2.3 MBq/mL. Also, in data set [5], the Flux worked out at 0.28, the K1 came to 1.89, the Kl/k2 came to 3.60 and the “Vs (distribution volume of the specific binding)” value is recorded as 3.96. Also, in data set [5], the “Vt (distribution volume)” value was 7.56; the k2 is on record as 0.52; the k3 is recorded as 0.09; the “k3/k4 (nondisplaceable binding potential, BPND)” value stood at 1.1. Besides, in data set [5], the k4 worked out at 0.08.
As for `OC[C@H]1OC(O)[C@H]([18F])[C@@H](O)[C@@H]1O` (stereo partly drawn) [[^18F]FDG, [^18F]fluorodeoxyglucose], in the data set on thyroid gland (control thyroid and thyroid with hyperplasia), the “uptake in control and hyperplastic thyroid” value was “neither the control nor thyroid with hyperplasia show an abnormal uptake”. Moreover, in the data set on thyroid gland (thyroid tumor), the “SUVmax in thyroid tumor” value is given as “two”.
Turning to `N[C@@H](Cc1ccccc1)C(=O)O` [phenylalanine], the 50% inhibitory concentration (IC50) in data set [6] was around 60 µM.
